These results are taken from the supplement of paper PMC10307832.

Common to all, as to experiment: relative viability (nuclei count vs DMSO), 5 days (fraction); higher = more cells survive
Compound in one experiment: C[C@@H](C(=O)N[C@@H](C1CCCCC1)C(=O)N2CCC[C@H]2C(=O)N[C@@H]3[C@@H](CC4=CC=CC=C34)OCC#CC#CCO[C@@H]5CC6=CC=CC=C6[C@@H]5NC(=O)[C@@H]7CCCN7C(=O)[C@H](C8CCCCC8)NC(=O)[C@H](C)NC)NC [AZD5582]
The method in brief: (§1)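 Viability is treated-well nuclei as a fraction of vehicle-well nuclei, reported as the median across plates. Before counting, lung cancer cell lines were kept overnight at 37 °C in 1536-well plates, pinned with five √10-spaced library-drug doses on vehicle-anchored plates, and left 5 days without medium change, then fixed, permeabilised and Hoechst-stained in one step, imaged at 4× and counted by MetaXpress. A plate passed only if control CV was below 25% and at least one doubling occurred.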

Compound in another experiment: Cn1nnc2c(C(N)=O)ncn2c1=O [Temozolomide]
The method in brief:
as §1

Compound in the experiment “AZD5582 + Bortezomib”: C[C@@H](C(=O)N[C@@H](C1CCCCC1)C(=O)N2CCC[C@H]2C(=O)N[C@@H]3[C@@H](CC4=CC=CC=C34)OCC#CC#CCO[C@@H]5CC6=CC=CC=C6[C@@H]5NC(=O)[C@@H]7CCCN7C(=O)[C@H](C8CCCCC8)NC(=O)[C@H](C)NC)NC [AZD5582] + CC(C)C[C@H](NC(=O)[C@H](Cc1ccccc1)NC(=O)c1cnccn1)B(O)O [Bortezomib] (partner 0.002 µM)
The method in brief: (§2)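 Nuclei were stained with Hoechst during a one-step fixation (final 0.05% Triton X-100, 1% formaldehyde, 1 ug/ml Hoechst) carried out 5 days after dosing, then counted on 4× images. The cells, lung cancer lines in 1536-well plates, had been dosed by pin tool the day after seeding with one drug alone or a fixed anchor-drug dose plus five library-drug doses (not always all listed) in √10 steps. Relative viability is the nuclei count in treated wells divided by that in vehicle wells, and each value is the median of duplicate plates.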

Compound in the experiment “AZD5582 + Crizotinib”: C[C@@H](C(=O)N[C@@H](C1CCCCC1)C(=O)N2CCC[C@H]2C(=O)N[C@@H]3[C@@H](CC4=CC=CC=C34)OCC#CC#CCO[C@@H]5CC6=CC=CC=C6[C@@H]5NC(=O)[C@@H]7CCCN7C(=O)[C@H](C8CCCCC8)NC(=O)[C@H](C)NC)NC [AZD5582] + C[C@@H](Oc1cc(-c2cnn(C3CCNCC3)c2)cnc1N)c1c(Cl)ccc(F)c1Cl [Crizotinib] (partner 1 µM)
The method in brief: as §2

Take NCI-H1703: the relative viability came to 0.853 with AZD5582 (0.005 µM); 0.952 with AZD5582 (0.01581 µM); 0.925 with AZD5582 (0.05 µM); 0.986 with Temozolomide (0.2 µM); 0.947 with Temozolomide (0.6325 µM); 1.29 with Temozolomide (2 µM). The relative viability was 0.825 in the experiment with Temozolomide (6.325 µM); 0.965 with Temozolomide (20 µM); 0.228 in the experiment with AZD5582 + Bortezomib (first compound 0.001581 µM); 0.277 with AZD5582 + Bortezomib (first compound 0.005 µM); 0.43 with AZD5582 + Bortezomib (first compound 0.01581 µM); 0.2 with AZD5582 + Bortezomib (first compound 0.05 µM). For the same cell line, the relative viability in the experiment with AZD5582 + Crizotinib (first compound 0.001581 µM) is 0.463; with AZD5582 + Crizotinib (first compound 0.005 µM), 0.428; with AZD5582 + Crizotinib (first compound 0.01581 µM), 0.59; with AZD5582 + Crizotinib (first compound 0.05 µM) it was 0.459.
